Assay results reported in ChEMBL document CHEMBL1158287, “Identification of ent-16 beta, 17-dihydroxykauran-19-oic acid as an anti-HIV principle and isolation of the new diterpenoids annosquamosins A and B from Annona squamosa” (J Nat Prod, 1996).
Values after ≈ are worked out from the molar mass of the structure shown. Active and inactive are the calls of the source. No cut-off for these calls is given here.

system: Human immunodeficiency virus 1; assay: Antiviral activity against HIV1 3B replication in human H9 cells up to 100 ug/mL after 3 days by p24 antigen capture assay; assay type: functional, organism-based; settings: not given

For `C[C@@]12CCC[C@@](C)(C(=O)O)[C@H]1CC[C@]13CC(CO)[C@@H](CC[C@H]12)C3` (mixture of isomers), which Activity is on record?
The Activity was “inactive”.

For `CC(=O)OC[C@@H]1C[C@@]23CC[C@H]4[C@@](C)(CCC[C@@]4(C)C(=O)O)[C@@H]2CC[C@H]1C3`, which Activity is on record?
Its Activity is “inactive”.

Which Activity does the source give for `C[C@@]12CCC[C@@](C)(C=O)[C@H]1CC[C@@]13C[C@H](CC[C@H]12)[C@H](C(=O)O)C3` here?
Its Activity is “inactive”.

With `C[C@@]12CCC[C@@](C)(C=O)[C@H]1CC[C@@]13C[C@@H](CC[C@H]12)[C@](O)(CO)C3` as the compound, how does the Activity read?
Its Activity is “inactive”.

For `C=C1C[C@@]23CC[C@@H]4[C@](C)(CO)CCC[C@@]4(C)[C@@H]2CC[C@H]1C3`, which Activity is on record?
Its Activity is “inactive”.

With `C=C1C[C@@]23CC[C@H]4[C@@](C)(CCC[C@@]4(C)C(=O)O)[C@@H]2CC[C@@H]1C3` as the compound, how does the Activity read?
Its Activity is “inactive”.

Which Activity does the source give for `C[C@@]1(CO)CCC[C@]2(C)[C@@H]1CC[C@@]13C[C@H](CC[C@H]12)[C@](O)(CO)C3` here?
The Activity was “inactive”.

For `C[C@@]12CCC[C@@](C)(O)[C@H]1CC[C@@]13C[C@H](CC[C@H]12)[C@H](C(=O)O)C3`, which Activity is on record?
The Activity was “inactive”.

With `C[C@@]12CCC[C@@](C)(C(=O)O)[C@H]1CC[C@@]13C[C@H](CC[C@H]12)[C@@](O)(CO)C3` as the compound, how does the Activity read?
Its Activity is “inactive”.

With `CC(=O)OC[C@]1(O)C[C@@]23CC[C@H]4[C@@](C)(CCC[C@@]4(C)C=O)[C@@H]2CC[C@H]1C3` as the compound, how does the Activity read?
The Activity was “inactive”.

For `C[C@@]12CCC[C@@](C)(O)[C@H]1CC[C@@]13C[C@H](CC[C@H]12)[C@](O)(CO)C3`, which Activity is on record?
The Activity was “inactive”.

Which Activity does the source give for `C[C@@]12CCC[C@@](C)(C=O)[C@H]1CC[C@]13C[C@@H](CO)[C@@H](CC[C@H]12)C3` here?
Its Activity is “inactive”.

system: Human immunodeficiency virus 1; assay: Antiviral activity against HIV1 3B replication in human H9 cells after 3 days by p24 antigen capture assay; assay type: functional, organism-based; settings: Human immunodeficiency virus 1, 3B, H9, 72 h

With `C[C@@]12CCC[C@@](C)(C(=O)O)[C@H]1CC[C@@]13C[C@@H](CC[C@H]12)[C@](O)(CO)C3` as the compound, how does the EC50 read?
Its EC50 is 0.8 µg/mL (≈ 2.38 µM).

system: not listed separately; assay: Therapeutic index, ratio of inhibition of human H9 cells to EC50 for HIV1 3B; assay type: cell-based; settings: not given

Which selectivity ratio does the source give for `C[C@@]12CCC[C@@](C)(C(=O)O)[C@H]1CC[C@@]13C[C@@H](CC[C@H]12)[C@](O)(CO)C3` here?
The selectivity ratio was greater than 5.
